# Data: ChEMBL document CHEMBL1201862, “PubChem BioAssay data set” (2004)
# Calls of active or inactive are those of the source.
# Tests used:
# [1] = Luminescence Cell-Based Dose Retest to Confirm Inhibitors of Cancer Stem Cells. [Related pubchem assays (depositor defined):AID2717, AID2721]; type: functional; conditions: Homo sapiens
# [2] = target: Cytochrome P450 2C9 (Homo sapiens, UniProt P11712)
# [3] = target: Cytochrome P450 3A4 (Homo sapiens, UniProt P08684);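 further: CYP3A4 tested as one member of a cytochrome P450 panel screen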
# Chain of Cytochrome P450 3A4 (P08684 whole entry): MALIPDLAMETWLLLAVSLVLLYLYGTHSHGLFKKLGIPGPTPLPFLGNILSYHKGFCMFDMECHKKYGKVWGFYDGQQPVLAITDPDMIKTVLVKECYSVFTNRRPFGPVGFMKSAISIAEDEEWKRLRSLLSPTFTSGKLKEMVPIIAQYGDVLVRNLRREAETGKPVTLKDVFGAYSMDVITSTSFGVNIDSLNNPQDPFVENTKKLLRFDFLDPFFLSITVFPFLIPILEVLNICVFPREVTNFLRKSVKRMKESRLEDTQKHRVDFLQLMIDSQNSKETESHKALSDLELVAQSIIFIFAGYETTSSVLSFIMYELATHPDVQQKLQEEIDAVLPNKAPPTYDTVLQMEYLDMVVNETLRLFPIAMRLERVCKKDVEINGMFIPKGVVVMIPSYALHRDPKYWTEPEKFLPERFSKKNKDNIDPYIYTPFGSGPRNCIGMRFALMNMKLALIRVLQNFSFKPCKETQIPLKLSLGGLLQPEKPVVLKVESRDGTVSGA
# [4] = target: T1, Protein RecA (Mycobacterium tuberculosis, UniProt P9WHJ3); test: Fluorescence Cell-Free Homogeneous Dose Retest to Identify Inhibitors of RecA-Intein Splicing Activity. [Related pubchem assays (depositor defined):AID2097, AID2223, AID489010, AID492950]; type: functional
# T1 sequence (P9WHJ3 whole entry): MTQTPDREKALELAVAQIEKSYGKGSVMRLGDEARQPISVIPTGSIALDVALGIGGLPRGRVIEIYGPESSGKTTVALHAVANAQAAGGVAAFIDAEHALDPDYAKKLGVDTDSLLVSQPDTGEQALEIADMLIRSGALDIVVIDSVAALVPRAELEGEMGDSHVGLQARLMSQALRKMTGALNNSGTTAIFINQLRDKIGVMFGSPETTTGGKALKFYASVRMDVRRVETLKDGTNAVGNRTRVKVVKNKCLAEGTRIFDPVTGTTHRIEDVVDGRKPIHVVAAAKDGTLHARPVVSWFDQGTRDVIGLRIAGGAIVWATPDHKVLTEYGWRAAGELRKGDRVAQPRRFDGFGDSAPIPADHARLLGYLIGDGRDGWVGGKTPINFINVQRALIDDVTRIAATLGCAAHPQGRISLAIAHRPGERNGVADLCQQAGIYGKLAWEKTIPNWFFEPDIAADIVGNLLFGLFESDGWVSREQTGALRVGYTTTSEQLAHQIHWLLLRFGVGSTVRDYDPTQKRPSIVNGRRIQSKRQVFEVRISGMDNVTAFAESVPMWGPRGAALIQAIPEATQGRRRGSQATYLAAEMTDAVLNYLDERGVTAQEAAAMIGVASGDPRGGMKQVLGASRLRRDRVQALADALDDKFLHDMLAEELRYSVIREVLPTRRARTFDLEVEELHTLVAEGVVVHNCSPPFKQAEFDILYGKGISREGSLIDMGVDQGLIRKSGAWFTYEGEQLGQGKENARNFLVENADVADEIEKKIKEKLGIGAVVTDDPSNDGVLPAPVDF
# [5] = target: T2, Replicative DNA helicase DnaB (Mycobacterium tuberculosis, UniProt P9WMR3); test: DnaB intein splicing inhibitors, dose response, biochemical, cell-free fluorescence (AID 449749); type: functional
# T2 sequence (P9WMR3 whole entry): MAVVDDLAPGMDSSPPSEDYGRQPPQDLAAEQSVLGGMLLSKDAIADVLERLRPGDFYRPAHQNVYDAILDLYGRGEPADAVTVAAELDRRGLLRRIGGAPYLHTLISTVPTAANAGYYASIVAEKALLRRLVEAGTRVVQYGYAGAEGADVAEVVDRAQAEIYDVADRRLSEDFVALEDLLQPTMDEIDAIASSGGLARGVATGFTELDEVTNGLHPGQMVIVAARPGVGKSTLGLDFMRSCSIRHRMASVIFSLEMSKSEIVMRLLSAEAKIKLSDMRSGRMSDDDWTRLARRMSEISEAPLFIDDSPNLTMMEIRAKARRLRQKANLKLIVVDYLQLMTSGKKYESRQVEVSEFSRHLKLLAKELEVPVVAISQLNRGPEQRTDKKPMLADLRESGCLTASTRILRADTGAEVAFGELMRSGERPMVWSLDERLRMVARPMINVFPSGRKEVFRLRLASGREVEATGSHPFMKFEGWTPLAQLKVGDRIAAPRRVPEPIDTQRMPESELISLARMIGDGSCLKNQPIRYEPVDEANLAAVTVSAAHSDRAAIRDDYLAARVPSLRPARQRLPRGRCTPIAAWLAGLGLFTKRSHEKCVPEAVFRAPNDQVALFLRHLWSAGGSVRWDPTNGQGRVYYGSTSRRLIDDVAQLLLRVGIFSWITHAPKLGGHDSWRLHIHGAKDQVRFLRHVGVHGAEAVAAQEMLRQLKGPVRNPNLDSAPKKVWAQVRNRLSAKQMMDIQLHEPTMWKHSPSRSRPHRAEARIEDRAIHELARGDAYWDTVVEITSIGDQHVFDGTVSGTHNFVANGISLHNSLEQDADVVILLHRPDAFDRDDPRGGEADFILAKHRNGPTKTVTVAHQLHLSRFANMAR
# [6] = target: T3, Coagulation factor XII (Homo sapiens, UniProt P00748); type: functional;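 further: activated factor XIIa alpha cleaving a fluorogenic AMC peptide substrate; inhibitor potency from loss of enzyme activity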
# T3 sequence (P00748 whole entry): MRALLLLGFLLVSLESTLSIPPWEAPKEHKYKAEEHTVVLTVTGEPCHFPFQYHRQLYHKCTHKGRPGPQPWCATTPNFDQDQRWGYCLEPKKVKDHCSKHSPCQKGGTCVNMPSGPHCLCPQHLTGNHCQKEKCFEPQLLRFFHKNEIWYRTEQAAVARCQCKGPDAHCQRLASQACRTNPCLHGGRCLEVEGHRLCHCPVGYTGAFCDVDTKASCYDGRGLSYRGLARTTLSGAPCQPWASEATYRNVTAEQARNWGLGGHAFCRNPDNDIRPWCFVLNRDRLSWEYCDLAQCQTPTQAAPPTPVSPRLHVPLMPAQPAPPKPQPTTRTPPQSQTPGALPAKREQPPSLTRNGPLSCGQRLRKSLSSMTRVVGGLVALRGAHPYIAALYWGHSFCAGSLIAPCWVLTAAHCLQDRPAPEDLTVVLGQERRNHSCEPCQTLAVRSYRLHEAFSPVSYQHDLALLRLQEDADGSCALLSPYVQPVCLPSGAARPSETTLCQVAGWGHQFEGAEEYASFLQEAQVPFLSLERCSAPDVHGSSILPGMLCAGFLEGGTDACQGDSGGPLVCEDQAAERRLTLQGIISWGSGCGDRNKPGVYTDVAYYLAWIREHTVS
# [7] = tested on: INS1; test: INS-1E survival protection against cytokine death – cell-based, luminescence, retest, dose response (AID 449756); type: functional; conditions: Rattus norvegicus;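 further: cell death triggered by IL-1 beta plus TNF-alpha plus IFN-gamma mixture; protective hits raise ATP signal compared with cytokine alone wells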
# [8] = decrease of insulin promoter-GFP reporter – imaging, high-content screening, mouse beta cells (AID 1628); type: functional; conditions: MIN6
# [9] = MIN6 cell viability loss – mouse insulinoma, cytotoxicity control, dose response (AID 2122); type: functional;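 further: confirmatory high-throughput counterscreen run to flag cytotoxic compounds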
# [10] = tested on: Vero; test: viability of Vero cells under compound – cytotoxicity control for flavivirus capping enzyme inhibitors (AID 588742); type: functional; conditions: Chlorocebus sabaeus
# [11] = target: Genome polyprotein (dengue virus type 2, UniProt P29990); test: flavivirus cap methylation enzyme inhibition – biochemical, confirmation dose response, primary screen (AID 588689); type: functional
# Chain of Genome polyprotein (P29990 2492-3391 limits assumed): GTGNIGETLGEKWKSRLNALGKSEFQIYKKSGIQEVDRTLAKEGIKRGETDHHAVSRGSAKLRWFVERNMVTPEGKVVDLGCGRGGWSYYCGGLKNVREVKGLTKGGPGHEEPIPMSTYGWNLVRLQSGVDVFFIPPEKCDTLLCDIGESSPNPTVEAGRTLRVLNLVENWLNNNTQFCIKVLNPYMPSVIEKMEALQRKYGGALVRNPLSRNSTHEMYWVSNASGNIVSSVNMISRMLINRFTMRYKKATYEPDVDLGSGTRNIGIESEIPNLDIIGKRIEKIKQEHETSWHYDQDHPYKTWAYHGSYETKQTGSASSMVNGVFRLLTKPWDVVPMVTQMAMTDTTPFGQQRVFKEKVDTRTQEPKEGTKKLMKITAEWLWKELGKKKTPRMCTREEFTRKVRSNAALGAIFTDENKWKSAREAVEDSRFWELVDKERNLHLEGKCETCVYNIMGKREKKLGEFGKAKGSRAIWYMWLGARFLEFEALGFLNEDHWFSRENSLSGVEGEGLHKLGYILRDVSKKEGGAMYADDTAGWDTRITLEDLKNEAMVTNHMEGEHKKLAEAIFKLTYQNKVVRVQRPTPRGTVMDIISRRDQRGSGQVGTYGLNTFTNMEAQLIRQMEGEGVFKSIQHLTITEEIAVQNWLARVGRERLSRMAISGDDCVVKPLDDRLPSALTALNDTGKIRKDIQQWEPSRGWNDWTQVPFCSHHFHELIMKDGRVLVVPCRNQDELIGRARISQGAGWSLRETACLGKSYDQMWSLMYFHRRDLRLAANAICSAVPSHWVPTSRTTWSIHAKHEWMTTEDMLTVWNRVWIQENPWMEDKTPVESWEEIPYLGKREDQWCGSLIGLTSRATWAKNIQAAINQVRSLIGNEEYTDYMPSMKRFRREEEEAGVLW
# [12] = target: T4, Polyadenylate-binding protein 1 (Homo sapiens, UniProt P11940); test: MLLE binding blockers, Cy5 peptide tracer – biochemical, fluorescence polarization, Cy5-PAM2 peptide, secondary, miRNA deadenylation inhibitor project, dose response (AID 602260); type: functional; conditions: read-out: IC50_Mean
# T4 sequence (P11940 whole entry, the tested form may be a part): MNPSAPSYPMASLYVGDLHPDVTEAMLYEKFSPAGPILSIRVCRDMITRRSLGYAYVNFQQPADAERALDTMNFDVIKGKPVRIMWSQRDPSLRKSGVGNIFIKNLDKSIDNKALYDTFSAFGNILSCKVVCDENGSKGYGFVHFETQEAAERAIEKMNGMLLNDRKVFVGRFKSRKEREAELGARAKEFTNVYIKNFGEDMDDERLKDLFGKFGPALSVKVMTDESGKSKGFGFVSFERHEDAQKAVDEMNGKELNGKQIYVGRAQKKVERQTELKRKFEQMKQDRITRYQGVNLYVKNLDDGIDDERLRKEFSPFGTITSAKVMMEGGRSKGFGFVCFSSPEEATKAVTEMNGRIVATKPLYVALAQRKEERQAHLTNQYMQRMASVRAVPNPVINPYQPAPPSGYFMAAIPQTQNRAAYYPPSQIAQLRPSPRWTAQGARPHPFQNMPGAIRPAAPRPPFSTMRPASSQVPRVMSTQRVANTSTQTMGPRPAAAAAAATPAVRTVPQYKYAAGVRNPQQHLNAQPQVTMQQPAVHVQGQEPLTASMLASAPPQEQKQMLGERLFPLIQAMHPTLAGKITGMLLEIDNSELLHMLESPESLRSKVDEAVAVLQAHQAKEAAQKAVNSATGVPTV
# [13] = target: T4, Polyadenylate-binding protein 1; test: MLLE domain peptide-binding blockers, IC50 – biochemical, fluorescence polarization, FITC-PAM2 peptide, dose response (AID 602259); type: functional; conditions: read-out: IC50_Mean
# [14] = target: Cytochrome P450 2D6 (Homo sapiens, UniProt P10635);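 further: CYP2D6 member of a cytochrome P450 panel assay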
# Chain of Cytochrome P450 2D6 (P10635 whole entry): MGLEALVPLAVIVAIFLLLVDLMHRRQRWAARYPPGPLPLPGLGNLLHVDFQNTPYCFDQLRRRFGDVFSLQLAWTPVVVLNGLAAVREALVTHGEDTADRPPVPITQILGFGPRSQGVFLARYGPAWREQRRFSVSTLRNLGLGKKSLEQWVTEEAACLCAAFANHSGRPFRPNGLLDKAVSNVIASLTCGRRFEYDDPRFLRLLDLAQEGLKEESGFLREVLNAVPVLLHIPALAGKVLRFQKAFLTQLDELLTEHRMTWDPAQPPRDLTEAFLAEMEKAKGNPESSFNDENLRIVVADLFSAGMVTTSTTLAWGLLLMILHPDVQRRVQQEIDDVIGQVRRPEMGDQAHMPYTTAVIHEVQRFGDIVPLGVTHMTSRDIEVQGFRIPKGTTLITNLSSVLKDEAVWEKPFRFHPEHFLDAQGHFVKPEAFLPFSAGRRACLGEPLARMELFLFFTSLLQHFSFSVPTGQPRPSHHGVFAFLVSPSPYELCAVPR
# [15] = target: T5, Cytochrome P450 1A2 (Homo sapiens, UniProt P05177);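 further: PubChem cytochrome P450 panel assay, CYP1A2 panel member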
# T5 sequence (P05177 whole entry): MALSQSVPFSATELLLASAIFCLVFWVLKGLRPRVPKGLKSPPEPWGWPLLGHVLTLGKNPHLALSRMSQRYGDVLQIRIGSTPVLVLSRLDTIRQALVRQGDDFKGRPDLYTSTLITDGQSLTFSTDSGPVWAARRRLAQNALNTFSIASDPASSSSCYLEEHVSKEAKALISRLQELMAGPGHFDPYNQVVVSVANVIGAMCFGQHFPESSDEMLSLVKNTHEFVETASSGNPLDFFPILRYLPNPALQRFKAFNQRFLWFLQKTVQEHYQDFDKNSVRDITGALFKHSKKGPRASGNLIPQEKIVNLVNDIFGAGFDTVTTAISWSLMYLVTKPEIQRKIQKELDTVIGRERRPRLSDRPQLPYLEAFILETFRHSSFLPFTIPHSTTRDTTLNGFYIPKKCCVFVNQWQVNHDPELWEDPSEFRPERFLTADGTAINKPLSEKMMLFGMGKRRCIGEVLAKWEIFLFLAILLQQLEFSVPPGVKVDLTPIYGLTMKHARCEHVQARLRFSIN
# [16] = viability of uninfected HEp-2 cells – cell-based, HTS, cytotoxicity control for RSV inhibitor project, dose response (AID 2410); type: functional; conditions: human respiratory syncytial virus
# [17] = target: T6, Apoptotic protease-activating factor 1 (Homo sapiens, UniProt O14727); type: functional
# T6 sequence (O14727 whole entry): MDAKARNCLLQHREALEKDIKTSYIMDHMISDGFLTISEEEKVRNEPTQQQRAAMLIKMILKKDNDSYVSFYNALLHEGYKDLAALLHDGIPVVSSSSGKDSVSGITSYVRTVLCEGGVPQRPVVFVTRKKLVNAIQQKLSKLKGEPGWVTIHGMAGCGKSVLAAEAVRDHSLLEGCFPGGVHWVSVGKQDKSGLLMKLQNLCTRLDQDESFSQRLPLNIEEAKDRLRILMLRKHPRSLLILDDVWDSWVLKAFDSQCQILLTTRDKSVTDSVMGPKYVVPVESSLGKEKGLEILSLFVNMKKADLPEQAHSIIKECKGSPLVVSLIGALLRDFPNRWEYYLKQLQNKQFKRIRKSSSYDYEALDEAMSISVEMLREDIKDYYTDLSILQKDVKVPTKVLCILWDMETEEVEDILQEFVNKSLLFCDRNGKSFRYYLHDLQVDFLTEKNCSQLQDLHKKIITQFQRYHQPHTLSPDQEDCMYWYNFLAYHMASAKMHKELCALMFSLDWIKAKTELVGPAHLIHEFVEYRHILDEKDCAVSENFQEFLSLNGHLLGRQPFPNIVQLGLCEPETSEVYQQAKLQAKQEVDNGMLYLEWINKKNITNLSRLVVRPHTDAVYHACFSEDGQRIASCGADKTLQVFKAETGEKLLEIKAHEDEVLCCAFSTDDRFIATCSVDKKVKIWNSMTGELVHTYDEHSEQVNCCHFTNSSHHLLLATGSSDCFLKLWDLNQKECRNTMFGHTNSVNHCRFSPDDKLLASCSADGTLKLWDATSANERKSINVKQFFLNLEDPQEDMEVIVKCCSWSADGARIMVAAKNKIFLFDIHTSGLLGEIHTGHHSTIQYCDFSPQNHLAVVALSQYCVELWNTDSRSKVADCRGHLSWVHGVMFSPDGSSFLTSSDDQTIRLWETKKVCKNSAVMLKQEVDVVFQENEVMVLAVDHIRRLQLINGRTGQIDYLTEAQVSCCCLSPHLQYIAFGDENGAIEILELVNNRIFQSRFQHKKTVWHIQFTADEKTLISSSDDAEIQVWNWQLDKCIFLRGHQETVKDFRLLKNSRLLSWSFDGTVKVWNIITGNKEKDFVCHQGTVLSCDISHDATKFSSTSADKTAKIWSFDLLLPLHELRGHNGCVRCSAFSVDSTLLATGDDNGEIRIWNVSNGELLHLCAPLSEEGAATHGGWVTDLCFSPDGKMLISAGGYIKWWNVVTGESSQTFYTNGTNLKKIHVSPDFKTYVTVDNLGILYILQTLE
# [18] = viability loss in THP-1 monocytes – THP-1 cells, cytotoxicity control for Vif-APOBEC3G degradation inhibitor project, dose response (AID 1117359); type: functional; conditions: THP-1
# Chain of Cytochrome P450 2C9 (P11712 whole entry): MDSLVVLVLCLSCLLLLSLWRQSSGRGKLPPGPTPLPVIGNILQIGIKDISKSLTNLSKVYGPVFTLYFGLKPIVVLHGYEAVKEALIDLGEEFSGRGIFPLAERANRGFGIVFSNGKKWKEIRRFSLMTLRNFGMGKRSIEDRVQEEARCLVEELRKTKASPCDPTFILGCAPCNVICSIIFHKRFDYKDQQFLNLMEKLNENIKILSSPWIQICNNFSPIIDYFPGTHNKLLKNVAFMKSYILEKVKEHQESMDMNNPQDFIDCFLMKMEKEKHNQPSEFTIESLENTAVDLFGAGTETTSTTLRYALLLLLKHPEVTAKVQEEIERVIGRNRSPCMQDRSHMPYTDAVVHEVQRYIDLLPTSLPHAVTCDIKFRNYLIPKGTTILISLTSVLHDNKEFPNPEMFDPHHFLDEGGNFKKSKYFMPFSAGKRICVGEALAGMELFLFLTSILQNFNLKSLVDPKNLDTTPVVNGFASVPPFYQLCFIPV
smiles,measurement,setting,value
CSc1nc2ccccc2cc1/C=C(\C#N)c1cccc(Cl)c1,AC50,[1],1.17 µM (active)
same,AC50,[2],39.8 µM (inconclusive)
same,AC50,[3],inconclusive
O=C(COC(=O)C1CC(=O)N(Cc2ccco2)C1)c1ccc(OC(=O)c2ccco2)cc1 (stereo not given),EC50,[4],18 µM (active)
same,AC50,[5],> 380 µM (inactive)
same,IC50,[6],13.3 µM (active)
COc1cc(CN2CCN(c3cc(C)ccc3C)CC2)ccc1O,AC50,[7],1.66 µM (active)
same,IC50,[8],2.74 µM (active)
same,IC50,[9],1.4 µM (active)
COc1cc(/C=C2\SC(=S)N(NS(=O)(=O)c3ccccc3)C2=O)cc(OC)c1OC,CC50,[10],> 40 µM (active)
same,IC50,[11],65 µM (active)
Cc1sc2nc3ccc(NCc4ccco4)nn3c(=O)c2c1C,CC50,[10],> 40 µM (active)
same,IC50,[11],> 100 µM (active)
same,IC50,[12],> 66 µM (inactive)
same,IC50,[13],> 66 µM (inactive)
O[C@@H](c1ccccc1)C1CCN(CCc2ccccc2)CC1,AC50,[14],25.1 µM (inconclusive)
same,AC50,[15],31.6 µM (inconclusive)
same,AC50,[3],inconclusive
CC(=O)O[C@]1(C(C)=O)CC[C@@H]2[C@@H]3C=C(C)C4=CC(=O)CC[C@@]4(C)[C@H]3CC[C@]21C,AC50,[2],12.6 µM (inconclusive)
same,AC50,[3],inconclusive
CC(=O)c1cccc(S(=O)(=O)N2CCN(c3nc4cc(C)cc(C)c4cc3C#N)CC2)c1,CC50,[16],18.4 µM (active)
same,IC50,[8],3.28 µM (active)
same,IC50,[9],5.84 µM (active)
Cc1ccc(-c2nnc(CSc3nnc(COc4cccc5ccccc45)n3-c3ccccc3)o2)cc1,IC50,[17],6.83 µM (active)
CCN1CCN(CC(=O)N2c3ccccc3CC2C)CC1.O=C(O)C(=O)O (stereo not given),AC50,[14],17.8 µM (inconclusive)
same,AC50,[3],inconclusive
CCOC(=O)N1CCN(C2=C(NS(=O)(=O)c3ccc(Br)cc3)C(=O)c3ccccc3C2=O)CC1,CC50,[10],> 40 µM (active)
COc1cc2c(cc1OC)C(=O)C(Br)CC2 (stereo not given),CC50,[10],26.4 µM (active)
same,CC50,[18],> 40 µM (active)
NCCS [CYSTEAMINE],AC50,[3],inconclusive
